Measurements published in ChEMBL document CHEMBL1201862, “PubChem BioAssay data set” (2004).
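Five concentrations, 48 hours, 96-well plates. Here, GI50 denotes the concentration required for 50% inhibition of growth.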 Activity calls are given as the source filed them. Cut-off read from the data, not from the text of the source: active = GI50 up to about 1.1 µM and inactive = higher.

How the values were obtained:
[1] = test system: DU-145; experiment: DTP human tumour cell line panel, 48 h
[2] = test system: PC-3; experiment: DTP human tumour cell line panel, 48 h

| Compound | GI50 [1] | GI50 [2] |
| --- | --- | --- |
| O=C1c2ccccc2-c2nnc(-c3ccc([N+](=O)[O-])cc3)cc21 | > 10 µM (inactive) | > 10 µM (inactive) |
| CCSc1nc(N)c2c(-c3ccc(OC)c(OC)c3)c3c(nc2n1)CCCC3 | > 100 µM (inactive) | > 100 µM (inactive) |
| COC(=O)C1=C(O)C(C(=O)OC)[C@]2(O)[C@@H](C(=O)OC)[C@H]1C[C@@H](c1ccccc1)[C@@H]2C(=O)OC (stereo partly drawn) | 11.9 µM (inactive) |  |
| Cc1c(OCc2ccccc2)c(=O)ccn1CCc1c[nH]c2ccccc12 | 25.9 µM (inactive) | 30.9 µM (inactive) |
| O=C(N/N=C/C=C/c1ccc([N+](=O)[O-])o1)c1ccc(Br)s1 | 30.3 µM (inactive) | 18.7 µM (inactive) |
| COC(=O)C1(c2ccc(N(C)C)cc2OC)CCCN(C(=O)Oc2ccccc2[N+](=O)[O-])CCc2c1[nH]c1ccccc21 (stereo not drawn) | > 100 µM (inactive) | > 100 µM (inactive) |
| COc1cc(C)cc2c1C(=O)C(NC(C)=O)=CC2=O | > 100 µM (inactive) | > 100 µM (inactive) |
| O=C1Oc2ccc([N+](=O)[O-])cc2N/C1=C\C(=O)c1ccccc1 | > 100 µM (inactive) | 72.4 µM (inactive) |
| Oc1ccccc1-c1nn2c(CCCCCCCCc3nnc4sc(-c5ccccc5O)nn34)nnc2s1 | 18 µM (inactive) | 26.5 µM (inactive) |
| [N-]=[N+]=Nc1c(C=O)c(=O)n2c3c(cccc13)CCC2 | 5.15 µM (inactive) | 12.1 µM (inactive) |
| CN1CC=C(c2cccn2C)CC1 | > 100 µM (inactive) | > 100 µM (inactive) |
| O=c1ccn(CC2(CO)CC(Cc3ccccc3)C2)c(=O)[nH]1 (stereo not drawn) | > 100 µM (inactive) | > 100 µM (inactive) |
| CCOC(=O)C[C@@H]1C2(C=C[C@@]13CO3)OCC(C)(C)CO2 | > 100 µM (inactive) | > 100 µM (inactive) |
| CCCCOP(C)(=O)C(NC(=O)OCC)(C(F)(F)F)C(F)(F)F (stereo not drawn) | > 100 µM (inactive) | > 100 µM (inactive) |
| CC(=O)OC(C(=O)O)C(OC(C)=O)C(OC(C)=O)C(OC(C)=O)C(=O)O (stereo not drawn) |  | > 100 µM (inactive) |
| O=Cc1cn(CCCCCCCCn2cc(C=O)c3ccccc32)c2ccccc12 | 8.05 µM (inactive) | 4.22 µM (inactive) |
| COP(=O)(OC)[C@H](O)[C@H]1C[C@@H]1c1ccccc1 | > 100 µM (inactive) | > 100 µM (inactive) |
| COP(=O)(OC)C(Cc1cn(C(C)=O)c2ccccc12)C(=O)O (stereo not drawn) | > 100 µM (inactive) | > 100 µM (inactive) |
| CCP(=O)(CC)C(Cl)Cl | > 100 µM (inactive) | > 100 µM (inactive) |
| O=C(O)CSCc1cc2c(O)c(c1)Cc1cc(CSCC(=O)O)cc(c1O)Cc1cc(CSCC(=O)O)cc(c1O)Cc1cc(CSCC(=O)O)cc(c1O)C2 | > 100 µM (inactive) | > 100 µM (inactive) |
| O=C1C(Cl)=C(N2CCC[C@H]2CO)C(=O)c2c(O)ccc(O)c21 | 4.38 µM (inactive) | 4.24 µM (inactive) |
| CC(=O)O[C@H]1[C@@H]2OC(=O)[C@@](O)(CC3CCCO3)[C@@H]2CC(=O)[C@](C)(O)CC/C=C(\C)CCC[C@@H]1C (stereo partly drawn) | 37.8 µM (inactive) | 36.5 µM (inactive) |
| O=P1(N2CCOCC2)OCCO1 | > 100 µM (inactive) | > 100 µM (inactive) |
| COc1cc(CCCl)c(CC2=NCCc3cc(OC)c(OC)cc32)cc1OC | > 100 µM (inactive) | 41.1 µM (inactive) |
| CCOC(=O)/C(C(=O)Nc1ccc(Cl)cc1)=C(/N)N1CCCC1 | > 100 µM (inactive) | > 100 µM (inactive) |
| NC[C@H]1Nc2ccccc2[C@@H](O)C1O (stereo partly drawn) | > 100 µM (inactive) | > 100 µM (inactive) |
| O=C1Cc2c(-c3ccccc3)cc(-c3cccc(Cl)c3)nc2-c2ccccc2N1 | 2.61 µM (inactive) | 5.97 µM (inactive) |
| CN(CCCCCl)P(=O)(OCC1=CC(=O)c2ccccc2C1=O)OC[C@H]1O[C@@H](n2cc(F)c(=O)[nH]c2=O)C[C@@H]1O (stereo partly drawn) | 0.052 µM (active) | 0.165 µM (active) |
| Cc1ccc2c(O)cc(-c3cc(C)sc3C)nc2n1 | 3.99 µM (inactive) | 2.55 µM (inactive) |
| CCCCCc1cccc(=O)o1 | > 100 µM (inactive) | > 100 µM (inactive) |
